Laboratory results published in paper PMC10487658, “Identification and Characterization of RK22, a Novel Antimicrobial Peptide from Hirudinaria manillensis against Methicillin Resistant Staphylococcus aureus” (International Journal of Molecular Sciences, 2023).
Converted amounts (≈) assume the structure as drawn. Like-named read-outs stand apart in the source and are kept apart here. Residues, ends and D or L forms follow the SMILES beside them. No end group written: not given here.

How the values were obtained:
E. coli, ATCC25922 = type: cell-based, Escherichia coli; details: RPMI 1640, 37 °C, 12–16 h, absorbance at 600 nm
P. aeruginosa, ATCC9027 = type: cell-based, Pseudomonas aeruginosa; details: RPMI 1640, 37 °C, 12–16 h, absorbance at 600 nm
S. aureus (ATCC6538) = experiment: microbe, parasite or virus in culture; type: cell-based, Staphylococcus aureus
Method: (§1) The bacterial strains used in this study included Pseudomonas aeruginosa (P. aeruginosa, ATCC27853), Acinetobacter baumannii (A. baumannii, ATCC19606), Escherichia coli (E. coli, ATCC8739), and S. aureus (ATCC6538, two clinically isolated strains (SA220823 and SA15772)), and three clinically isolated methicillin-resistant strains (MRSA-Z, MRSA11, and MRSA22). All strains were grown in Luria-Bertani (LB) broth.
(§2) The minimum inhibitory concentration (MIC) for all strains was determined using the […] assay based on a previous study with minor modifications. Initially, strains in the exponential phase were diluted to a concentration of 2 × 10^5 CFU/mL using RPMI 1640 medium (Corning, New York, NY, USA). Next, 100 μL of the bacterial suspension was mixed with 100 μL of the sample solution (final concentration 0–200 μg/mL in RPMI 1640 medium) in 96-well plates. The plates were then incubated at 37 °C for 12–16 h. After incubation, the absorbance at 600 nm was measured, and the MIC was determined as the lowest concentration of the test sample in which no bacterial growth was detected in the well.

MRSA-Z [1] = experiment: Bacterial killing kinetic assay; type: cell-based, Staphylococcus aureus; details: 10 × MIC, 6 h, RPMI 1640, 37 °C, CFU count, 3 individual experiments
Method: (§3) The bactericidal killing kinetic assay was performed according to a previous study with minor modifications. Firstly, S. aureus ATCC6538 or methicillin-resistant S. aureus MRSA-Z was diluted to 2 × 10^5 CFU/mL using RPMI 1640 medium. Equal volumes of either RK22 (final concentration 1, 5, 10 × MIC) or vancomycin (Macklin, Shanghai, China) (final concentration 1, 5, 10 × MIC) solutions were added to the bacterial suspension. The mixtures were then incubated at 37 °C for different times (0, 15, 30, 60, 180, and 360 min). At each time point, the bacterial solution was inoculated on LB agar culture medium, and colony forming units (CFUs) were counted after 24 h.

S. aureus ATCC6538 [2] = experiment: Bacterial killing kinetic assay; type: cell-based, Staphylococcus aureus; details: RPMI 1640, 37 °C, CFU count, 3 individual experiments
Method: as §3

MRSA-Z [3] = experiment: S. aureus-induced bacteremia model; type: in vivo, mouse; details: RK22 8 mg/kg, vancomycin 4 mg/kg ip 1 h after infection, 4 h after administration
Method: (§4) S. aureus ATCC6538 or methicillin-resistant S. aureus MRSA-Z were diluted to a concentration of 1 × 10^9 CFU/mL with normal saline. Male C57BL/6 mice (6–8 weeks of age) were randomly divided into seven groups of 10–12 mice per group. S. aureus ATCC6538 (100 μL) or methicillin-resistant S. aureus MRSA-Z (200 μL) were injected intravenously. At the end of 1 h, mice received an intraperitoneal injection of normal saline, vancomycin (dissolved in saline with the concentration of 2 and 4 mg/kg), or RK22 (dissolved in saline with the concentration of 2, 4, and 8 mg/kg). At 4 h post-administration, the mice were sacrificed, and blood and lung samples were collected. Lungs were then weighed and placed in 1 mL of PBS and homogenized on ice with a tissue grinder. Homogenates and clarified blood were plated in LB agar culture medium and CFUs were counted after 24 h. For histopathological analysis, sections of lung were fixed with 4% paraformaldehyde, embedded in paraffin wax, and stained with H&E.

S. aureus ATCC6538 [4] = experiment: S. aureus-induced bacteremia model; type: in vivo, mouse; details: RK22 8 mg/kg, vancomycin 4 mg/kg ip 1 h after infection, 4 h after administration
Method: as §4

[5] = tested on: MRSA-Z (clinically isolated methicillin-resistant S. aureus); experiment: microbe, parasite or virus in culture; type: cell-based, Staphylococcus aureus; details: Staphylococcus aureus, MRSA
Method: as §1, §2

[6] = tested on: MRSA22 (clinically isolated methicillin-resistant S. aureus); experiment: microbe, parasite or virus in culture; type: cell-based, Staphylococcus aureus; details: Staphylococcus aureus
Method: as §1, §2

[7] = tested on: SA220823 (clinically isolated S. aureus); experiment: microbe, parasite or virus in culture; type: cell-based, Staphylococcus aureus; details: Staphylococcus aureus
Method: as §1, §2

[8] = tested on: SA15772 (clinically isolated S. aureus); experiment: microbe, parasite or virus in culture; type: cell-based, Staphylococcus aureus; details: Staphylococcus aureus
Method: as §1, §2

[9] = tested on: MRSA11 (clinically isolated methicillin-resistant S. aureus); experiment: microbe, parasite or virus in culture; type: cell-based, Staphylococcus aureus; details: Staphylococcus aureus
Method: as §1, §2

washed platelets = experiment: Platelet activity assay, flow cytometry; type: cell-based; details: mouse washed platelets, 20, 10, 5, 2.5 μg/mL, 10 min, P-selectin
Method: Platelets were isolated from the mice as described in a previous study with minor modifications. The effect of RK22 and LL-37 on platelet activity was detected by flow cytometry. Mouse blood was mixed with Tyrode’s buffer A (137 mM NaCl, 2 mM KCl, 0.3 mM NaH2PO4, 12 mM NaHCO3, 5.5 mM glucose, 0.35% BSA, 1 mM MgCl2, and 0.2 mM EDTA, pH 6.5) and centrifuged (150× g, 10 min, room temperature) to obtain platelet-rich plasma (PRP), which was then pelleted (400× g, 5 min, room temperature), washed with Tyrode’s buffer A, and finally resuspended in Tyrode’s buffer B (137 mM NaCl, 2 mM KCl, 0.3 mM NaH2PO4, 12 mM NaHCO3, 5.5 mM glucose, 0.35% BSA and 2 mM CaCl2, pH 7.4). Antibodies against P-selectin (Biolegend, San Diego, CA, USA) were added to the platelets, followed by incubation for 10 min at room temperature. Samples (20, 10, 5, and 2.5 μg/mL) or normal saline were added, respectively, and analyzed by flow cytometry (BD, LSRFortessa^TM, Franklin Lakes, NJ, USA).

thrombin = molecular target: T1, thrombin (Homo sapiens, UniProt P00734); experiment: Enzymatic activity assay of coagulation factors, chromogenic substrate; type: biochemical; details: 40, 200, 1000 nM, 10 min pre-incubation, substrate S-2238, 405 nm
T1 construct: purchased Enzymeresearch, Lake Oswego, OR, USA
Method: (§5) The enzymatic activity of RK22 and LL-37 against coagulation factors was measured using the chromogenic substrate method. In brief, 5 μL of FXa (Enzymeresearch, Lake Oswego, OR, USA) (final concentration 3 μg/mL) or thrombin (Enzymeresearch, Lake Oswego, OR, USA) (final concentration 0.1056 μg/mL) and 5 μL of sample (final concentration 40, 200, and 1000 nM) were incubated for 10 min in 96-well plates, respectively. Following incubation, thrombin substrate (S-2238, Chromogenix, Milano, Italy, 45 μg/mL) or FXa substrate (S-2222, Chromogenix, Milano, Italy, 90 μg/mL) dissolved with 90 μL of enzyme dynamic buffer (100 mM NaCl, 50 mM Tris, 5 mM CaCl2, pH 8.0) were added and absorbance was measured at 405 nm every 1 min for 90 min.

FXa = molecular target: T2, FXa (Homo sapiens, UniProt P00742); experiment: as above; type: biochemical; details: 40, 200, 1000 nM, 10 min pre-incubation, substrate S-2222, 405 nm
T2 construct: purchased Enzymeresearch, Lake Oswego, OR, USA
T2 sequence (P00742 235-488 limits assumed): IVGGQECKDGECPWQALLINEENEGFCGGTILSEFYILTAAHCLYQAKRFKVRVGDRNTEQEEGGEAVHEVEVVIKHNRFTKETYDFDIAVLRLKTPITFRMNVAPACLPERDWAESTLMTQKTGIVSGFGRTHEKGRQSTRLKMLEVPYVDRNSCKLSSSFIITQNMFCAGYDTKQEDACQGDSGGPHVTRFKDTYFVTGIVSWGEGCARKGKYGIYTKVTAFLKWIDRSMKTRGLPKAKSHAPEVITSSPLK
T2 sequence (P00742 41-179 partner limits assumed): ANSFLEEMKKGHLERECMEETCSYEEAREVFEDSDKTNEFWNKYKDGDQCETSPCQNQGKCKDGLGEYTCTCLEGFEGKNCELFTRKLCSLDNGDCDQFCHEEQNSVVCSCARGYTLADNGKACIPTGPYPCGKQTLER
Method: as §5

[10] = P. aeruginosa ATCC9027 in Table 3

VFLICFSLISPASFENVRAKW [VF21]
MIC (E. coli, ATCC25922; E. coli ATCC25922): >100 µg/mL
MIC (P. aeruginosa, ATCC9027; [10]): >100 µg/mL

KSKSKKPSKSKPKKKKTSVVQQELQDVISFDFGC [KS34]
MIC (E. coli, ATCC25922; E. coli ATCC25922): >100 µg/mL
MIC (P. aeruginosa, ATCC9027; [10]): >100 µg/mL

KTRRRNRKHKKTINTETVQI [KT20]
MIC (E. coli, ATCC25922; E. coli ATCC25922): >100 µg/mL
MIC (S. aureus (ATCC6538)): 50 µg/mL
MIC (P. aeruginosa, ATCC9027; [10]): >100 µg/mL

CN[C@H](CC(C)C)C(=O)N[C@H]1C(=O)N[C@@H](CC(N)=O)C(=O)N[C@H]2C(=O)N[C@H]3C(=O)N[C@H](C(=O)N[C@H](C(=O)O)c4cc(O)cc(O)c4-c4cc3ccc4O)[C@H](O)c3ccc(c(Cl)c3)Oc3cc2cc(c3O[C@@H]2O[C@H](CO)[C@@H](O)[C@H](O)[C@H]2O[C@H]2C[C@](C)(N)[C@H](O)[C@H](C)O2)Oc2ccc(cc2Cl)[C@H]1O [Vancomycin, vancomycin, reference compound]
MRSA-Z inhibited / eradicated (MRSA-Z [1]): about 80%
time to a kill rate of more than 90% (S. aureus ATCC6538 [2]; S. aureus ATCC6538, 5 × MIC): 6 h
time to a kill rate of more than 90% (S. aureus ATCC6538 [2]; S. aureus ATCC6538, 10 × MIC): 6 h
infection-induced tissue injury in the lung (H&E) (MRSA-Z [3]): significantly alleviated
infection-induced hemorrhage and inflammatory cell infiltration in the lung (H&E) (S. aureus ATCC6538 [4]): significantly alleviated
MIC (S. aureus (ATCC6538); Staphylococcus aureus): 1.56 µg/mL (≈ 1.08 µM)
MIC [5]: 1.56 µg/mL (≈ 1.08 µM)
MIC [6]: 1.56 µg/mL (≈ 1.08 µM)
MIC [7]: 1.56 µg/mL (≈ 1.08 µM)
MIC [8]: 1.56 µg/mL (≈ 1.08 µM)
MIC [9]: 1.56 µg/mL (≈ 1.08 µM)

KSSNTKAKKKKKNN [KS14]
MIC (E. coli, ATCC25922; E. coli ATCC25922): >100 µg/mL
MIC (S. aureus (ATCC6538)): 50 µg/mL
MIC (P. aeruginosa, ATCC9027; [10]): >100 µg/mL

LL-37
platelet activation (washed platelets): significant and dose-dependent effects on platelet activation
effect on enzymatic activity of thrombin (thrombin): significant potentiation activity
effect on enzymatic activity of FXa (FXa): significant potentiation activity

CC(C)C[C@H](NC(=O)[C@@H](NC(=O)[C@@H](NC(=O)[C@H](CS)NC(=O)[C@@H](NC(=O)[C@H](CCCCN)NC(=O)[C@H](CCCCN)NC(=O)[C@H](CCCCN)NC(=O)[C@H](CCCCN)NC(=O)[C@@H]1CCCN1C(=O)[C@H](CCCCN)NC(=O)[C@@H]1CCCN1C(=O)[C@H](CCCCN)NC(=O)[C@@H]1CCCN1C(=O)[C@H](CS)NC(=O)[C@H](CC(C)C)NC(=O)[C@@H](NC(=O)[C@H](C)NC(=O)[C@@H](N)CCCNC(=N)N)C(C)C)C(C)C)C(C)C)C(C)C)C(=O)O [RA19] (H-RAVLCPKPKPKKKKVCVVL-OH; N-terminus and C-terminus assumed)
MIC (E. coli, ATCC25922; E. coli ATCC8739 as printed in the text): exceeding 100 μg/mL
MIC (P. aeruginosa, ATCC9027; P. aeruginosa ATCC27853 as printed in the text): exceeding 100 μg/mL
